This is an account of results in patent publication US10392391B2 (Vertex Pharmaceuticals Incorporated, priority 2012, dated 2019).

This assay concerns the target ATR kinase (full-length ATR) (Homo sapiens (Human), UniProt Q13535). The experiment in a line: ATR inhibition assay (radioactive-phosphate incorporation). Format: biochemical. In a few lines: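 Ki(app) was fitted by non-linear regression to background-corrected initial rates. Full-length ATR (5 nM) phosphorylated 800 μM peptide using 10 μM [γ-33P]ATP at 25° C in Tris/HCl pH 7.5 buffer with MgCl2, DTT and 7% DMSO. After 10-minute compound pre-incubation and 24-hour reaction, phosphocellulose filters were scintillation counted.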

[1] abbreviates: Ki(app), 5 nM full-length ATR, 10 μM ATP, 25° C.

SMILES strings stand for the structures. Like-named read-outs stand apart in the source and are kept apart here.

Chain of ATR kinase (full-length ATR) (Q13535 whole entry): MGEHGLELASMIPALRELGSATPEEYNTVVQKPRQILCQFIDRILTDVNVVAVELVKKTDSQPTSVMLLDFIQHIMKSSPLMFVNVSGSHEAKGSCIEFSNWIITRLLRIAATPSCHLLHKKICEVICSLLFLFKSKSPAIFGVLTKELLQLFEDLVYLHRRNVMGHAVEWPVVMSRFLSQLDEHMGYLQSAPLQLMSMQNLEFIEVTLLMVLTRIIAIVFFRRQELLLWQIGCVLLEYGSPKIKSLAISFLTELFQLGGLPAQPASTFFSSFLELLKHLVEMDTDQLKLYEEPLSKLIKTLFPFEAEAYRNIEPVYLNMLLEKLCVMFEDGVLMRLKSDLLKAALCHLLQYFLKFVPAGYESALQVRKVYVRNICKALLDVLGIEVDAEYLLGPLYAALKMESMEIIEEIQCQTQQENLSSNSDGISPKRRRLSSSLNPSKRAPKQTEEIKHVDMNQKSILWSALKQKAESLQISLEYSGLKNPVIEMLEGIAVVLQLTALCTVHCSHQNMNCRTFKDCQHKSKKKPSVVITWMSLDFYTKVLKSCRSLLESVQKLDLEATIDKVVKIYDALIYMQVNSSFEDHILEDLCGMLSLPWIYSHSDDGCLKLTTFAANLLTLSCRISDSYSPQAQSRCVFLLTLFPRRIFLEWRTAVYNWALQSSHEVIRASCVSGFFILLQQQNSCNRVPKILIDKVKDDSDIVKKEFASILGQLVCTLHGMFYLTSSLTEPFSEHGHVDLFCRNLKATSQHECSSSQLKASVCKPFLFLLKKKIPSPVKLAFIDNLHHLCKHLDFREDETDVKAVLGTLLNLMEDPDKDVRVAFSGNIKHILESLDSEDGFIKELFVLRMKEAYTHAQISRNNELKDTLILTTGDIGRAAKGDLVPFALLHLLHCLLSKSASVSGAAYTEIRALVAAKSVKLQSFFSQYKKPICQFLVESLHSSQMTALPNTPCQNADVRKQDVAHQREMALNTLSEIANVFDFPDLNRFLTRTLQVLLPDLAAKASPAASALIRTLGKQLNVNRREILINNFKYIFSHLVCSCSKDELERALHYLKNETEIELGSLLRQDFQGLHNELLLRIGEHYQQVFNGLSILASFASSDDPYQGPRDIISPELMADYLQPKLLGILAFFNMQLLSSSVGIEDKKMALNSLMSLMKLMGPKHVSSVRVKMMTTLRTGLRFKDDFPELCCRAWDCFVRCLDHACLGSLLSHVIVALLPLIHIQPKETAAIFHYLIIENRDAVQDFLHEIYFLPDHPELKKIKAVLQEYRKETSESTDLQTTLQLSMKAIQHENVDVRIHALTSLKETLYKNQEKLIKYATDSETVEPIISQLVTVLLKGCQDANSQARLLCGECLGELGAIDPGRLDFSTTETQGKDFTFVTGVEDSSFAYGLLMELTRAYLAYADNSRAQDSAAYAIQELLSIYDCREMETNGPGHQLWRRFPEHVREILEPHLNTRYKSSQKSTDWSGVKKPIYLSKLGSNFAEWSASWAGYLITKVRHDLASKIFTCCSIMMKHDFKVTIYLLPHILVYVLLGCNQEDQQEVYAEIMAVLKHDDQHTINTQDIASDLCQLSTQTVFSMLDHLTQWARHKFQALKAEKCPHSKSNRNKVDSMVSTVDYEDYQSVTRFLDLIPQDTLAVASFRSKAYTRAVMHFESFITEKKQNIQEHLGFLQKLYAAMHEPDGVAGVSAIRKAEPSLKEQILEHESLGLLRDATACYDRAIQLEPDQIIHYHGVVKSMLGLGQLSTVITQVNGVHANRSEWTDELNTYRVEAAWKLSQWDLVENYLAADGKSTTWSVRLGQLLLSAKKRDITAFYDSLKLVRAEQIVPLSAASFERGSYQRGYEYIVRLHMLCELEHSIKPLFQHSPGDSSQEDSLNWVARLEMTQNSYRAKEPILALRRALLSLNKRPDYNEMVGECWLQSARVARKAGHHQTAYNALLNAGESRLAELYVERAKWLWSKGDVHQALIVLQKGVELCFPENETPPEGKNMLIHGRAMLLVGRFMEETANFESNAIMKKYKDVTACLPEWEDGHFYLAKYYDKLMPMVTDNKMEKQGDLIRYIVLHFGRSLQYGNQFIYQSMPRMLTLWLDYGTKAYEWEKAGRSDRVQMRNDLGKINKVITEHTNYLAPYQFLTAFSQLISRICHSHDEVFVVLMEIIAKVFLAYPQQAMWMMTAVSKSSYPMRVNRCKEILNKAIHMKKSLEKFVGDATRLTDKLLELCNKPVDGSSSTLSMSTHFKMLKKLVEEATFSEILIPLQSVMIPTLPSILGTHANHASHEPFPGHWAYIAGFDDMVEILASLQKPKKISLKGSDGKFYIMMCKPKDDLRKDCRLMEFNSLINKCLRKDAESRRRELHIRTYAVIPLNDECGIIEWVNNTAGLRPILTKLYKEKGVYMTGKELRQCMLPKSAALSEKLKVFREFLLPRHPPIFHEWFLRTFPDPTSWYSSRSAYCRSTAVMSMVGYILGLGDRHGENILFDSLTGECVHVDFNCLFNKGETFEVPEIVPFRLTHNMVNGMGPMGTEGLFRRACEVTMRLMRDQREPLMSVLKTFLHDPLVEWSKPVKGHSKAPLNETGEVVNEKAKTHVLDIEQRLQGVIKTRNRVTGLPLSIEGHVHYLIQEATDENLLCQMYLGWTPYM

With `Nc1nn2cc(F)cnc2c1C(=O)Nc1cnccc1C1CC1` [I-C-42, 2-amino-N-(4-cyclopropylpyridin-3-yl)-6-fluoropyrazolo[1,5-a]pyrimidine-3-carboxamide], the Ki under setting [1] lay within 0.01 to 1 µM.
For `COC1CN(C(=O)C2CCN(c3ccncc3NC(=O)c3c(N)nn4cc(F)cnc34)CC2)C1` [I-G-78, 2-amino-6-fluoro-N-(4-(4-(3-methoxyazetidine-1-carbonyl)piperidin-1-yl)pyridin-3-yl)pyrazolo[1,5-a]pyrimidine-3-carboxamide], the Ki under setting [1] is 0.01 to 1 µM.
Still for that read-out and setting: to `COc1cncc(NC(=O)c2c(N)nn3cc(F)cnc23)c1-c1cccnc1` [I-C-82, 2-amino-6-fluoro-N-(5′-methoxy-[3,4′-bipyridin]-3′-yl)pyrazolo[1,5-a]pyrimidine-3-carboxamide] belongs 0.01 to 1 µM.
Consider `Nc1nn2cc(F)cnc2c1C(=O)Nc1cnccc1-c1ccc(C(=O)N2CCN3CCC2CC3)cc1` [I-C-48, N-(4-(4-(1,4-diazabicyclo[3.2.2]nonane-4-carbonyl)phenyl)pyridin-3-yl)-2-amino-6-fluoropyrazolo[1,5-a]pyrimidine-3-carboxamide], for which the Ki under setting [1] was 0.01 to 1 µM.
The same measure, in the same setting: to `CN1CCC(Oc2c(F)cncc2NC(=O)c2c(N)nn3cc(F)cnc23)CC1` [I-O-89, 2-amino-6-fluoro-N-(5-fluoro-4-((1-methylpiperidin-4-yl)oxy)pyridin-3-yl)pyrazolo[1,5-a]pyrimidine-3-carboxamide] belongs 0.01 to 1 µM; to `Cc1ccncc1-c1ccncc1NC(=O)c1c(N)nn2cc(F)cnc12` [I-C-30, 2-amino-6-fluoro-N-(4-methyl-[3,4′-bipyridin]-3′-yl)pyrazolo[1,5-a]pyrimidine-3-carboxamide], 0.01 to 1 µM.
Turning to `N#CCc1cnc2c(C(=O)Nc3cnccc3N3CCCC3)c(N)nn2c1` [I-N-77, 2-amino-6-(cyanomethyl)-N-(4-(pyrrolidin-1-yl)pyridin-3-yl)pyrazolo[1,5-a]pyrimidine-3-carboxamide], the Ki under setting [1] lay in the range of 0.01 to 1 µM.
On the same count and under the same terms, to `CN1CCN(C(=O)C2CCN(c3c(F)cncc3NC(=O)c3c(N)nn4cc(F)cnc34)CC2)C2CC21` (stereo not drawn) [I-G-65, 2-amino-6-fluoro-N-(5-fluoro-4-(4-(5-methyl-2,5-diazabicyclo[4.1.0]heptane-2-carbonyl)piperidin-1-yl)pyridin-3-yl)pyrazolo[1,5-a]pyrimidine-3-carboxamide] belongs 0.01 to 1 µM.
Still for that read-out and setting: the value for `Nc1nn2cc(F)cnc2c1C(=O)Nc1cncc(F)c1C1=CCN(C2COC2)CC1` [I-C-12, 2-amino-6-fluoro-N-(5-fluoro-1′-(oxetan-3-yl)-1′,2′,3′,6′-tetrahydro-[4,4′-bipyridin]-3-yl)pyrazolo[1,5-a]pyrimidine-3-carboxamide] was 0.01 to 1 µM.
The same measure, in the same setting: to `CS(=O)(=O)C1CCN(c2ccncc2NC(=O)c2c(N)nn3cc(F)cnc23)CC1` [I-N-190, 2-amino-6-fluoro-N-(4-(4-(methylsulfonyl)piperidin-1-yl)pyridin-3-yl)pyrazolo[1,5-a]pyrimidine-3-carboxamide] belongs 0.01 to 1 µM.
For the molecule `COC1(C)CN(C(=O)C2CCN(c3c(F)cncc3NC(=O)c3c(N)nn4cc(F)cnc34)CC2)C1` [I-G-75, 2-amino-6-fluoro-N-(5-fluoro-4-(4-(3-methoxy-3-methylazetidine-1-carbonyl)piperidin-1-yl)pyridin-3-yl)pyrazolo[1,5-a]pyrimidine-3-carboxamide], under setting [1], the Ki is 0.01 to 1 µM.
Same read-out and setting: the value for `COC1CCN(c2ccncc2NC(=O)c2c(N)nn3cc(Cl)cnc23)CC1` [I-N-73, 2-amino-6-chloro-N-(4-(4-methoxypiperidin-1-yl)pyridin-3-yl)pyrazolo[1,5-a]pyrimidine-3-carboxamide] was 0.01 to 1 µM.
On the same count and under the same terms, to `Nc1nn2cc(F)cnc2c1C(=O)Nc1cncc(F)c1N1CCN2C(=O)CCC2C1` (stereo not drawn) [I-N-163, 2-amino-6-fluoro-N-(5-fluoro-4-(6-oxohexahydropyrrolo[1,2-a]pyrazin-2(1H)-yl)pyridin-3-yl)pyrazolo[1,5-a]pyrimidine-3-carboxamide] belongs 0.01 to 1 µM; to `Nc1nn2cc(F)cnc2c1C(=O)Nc1cnccc1N1CCN(CC(F)(F)F)CC1` [I-N-20, 2-amino-6-fluoro-N-(4-(4-(2,2,2-trifluoroethyl)piperazin-1-yl)pyridin-3-yl)pyrazolo[1,5-a]pyrimidine-3-carboxamide], 0.01 to 1 µM; to `Nc1nn2cc(F)cnc2c1C(=O)Nc1cnccc1N1CCN2CCC1CC2` [I-N-18, N-(4-(1,4-diazabicyclo[3.2.2]nonan-4-yl)pyridin-3-yl)-2-amino-6-fluoropyrazolo[1,5-a]pyrimidine-3-carboxamide], 0.01 to 1 µM.
Still for that read-out and setting: to `Nc1nn2cc(F)cnc2c1C(=O)Nc1cncc(F)c1N1CCC(c2nccs2)CC1` [I-N-184, 2-amino-6-fluoro-N-(5-fluoro-4-(4-(thiazol-2-yl)piperidin-1-yl)pyridin-3-yl)pyrazolo[1,5-a]pyrimidine-3-carboxamide] belongs 0.01 to 1 µM; to `N#CCc1cnc2c(C(=O)Nc3cnccc3O[C@@H]3CCNC3)c(N)nn2c1` [I-O-87, (R)-2-amino-6-(cyanomethyl)-N-(4-(pyrrolidin-3-yloxy)pyridin-3-yl)pyrazolo[1,5-a]pyrimidine-3-carboxamide], 0.01 to 1 µM.
As for `Nc1nn2cc(F)cnc2c1C(=O)Nc1cncc(F)c1C1CCN(C2COC2)CC1` [I-C-13, 2-amino-6-fluoro-N-(5-fluoro-4-(1-(oxetan-3-yl)piperidin-4-yl)pyridin-3-yl)pyrazolo[1,5-a]pyrimidine-3-carboxamide], the Ki lay in the range of 1 to 5 µM.
Turning to `CCN1CCCCC1C(=O)N1CCN(c2c(F)cncc2NC(=O)c2c(N)nn3cc(F)cnc23)CC1` (stereo not drawn) [I-N-204, 2-amino-N-(4-(4-(1-ethylpiperidine-2-carbonyl)piperazin-1-yl)-5-fluoropyridin-3-yl)-6-fluoropyrazolo[1,5-a]pyrimidine-3-carboxamide], under setting [1], the Ki fell in the range of 0.01 to 1 µM.
As for `CN1CCC[C@H]1C(=O)N1CCN(c2ccncc2NC(=O)c2c(N)nn3cc(F)cnc23)CC1` [I-N-198, (S)-2-amino-6-fluoro-N-(4-(4-(1-methylpyrrolidine-2-carbonyl)piperazin-1-yl)pyridin-3-yl)pyrazolo[1,5-a]pyrimidine-3-carboxamide], under setting [1], the Ki is 0.01 to 1 µM.
The same measure, in the same setting: the value for `CN1CCOCC1C(=O)N1CCN(c2c(F)cncc2NC(=O)c2c(N)nn3cc(F)cnc23)CC1` (stereo not drawn) [I-N-227, 2-amino-6-fluoro-N-(5-fluoro-4-(4-(4-methylmorpholine-3-carbonyl)piperazin-1-yl)pyridin-3-yl)pyrazolo[1,5-a]pyrimidine-3-carboxamide] was 0.01 to 1 µM; that for `CN1CCC(Oc2ccncc2NC(=O)c2c(N)nn3cc(CC#N)cnc23)CC1` [I-O-23, 2-amino-6-(cyanomethyl)-N-(4-((1-methylpiperidin-4-yl)oxy)pyridin-3-yl)pyrazolo[1,5-a]pyrimidine-3-carboxamide] was 0.01 to 1 µM; that for `CC(=O)N1CC2(CCN(c3ccncc3NC(=O)c3c(N)nn4cc(F)cnc34)CC2)C1` [I-N-251, N-(4-(2-acetyl-2,7-diazaspiro[3.5]nonan-7-yl)pyridin-3-yl)-2-amino-6-fluoropyrazolo[1,5-a]pyrimidine-3-carboxamide] was 0.01 to 1 µM.
Same read-out and setting: the value for `Cc1ccc(-c2ccncc2NC(=O)c2c(N)nn3cc(F)cnc23)cn1` [I-C-22, 2-amino-6-fluoro-N-(6-methyl-[3,4′-bipyridin]-3′-yl)pyrazolo[1,5-a]pyrimidine-3-carboxamide] was 0.01 to 1 µM.
